From patent US7148246B2, “Cycloalkyl derivatives having bioisosteric carboxylic acid groups, processes for their preparation and their use as pharmaceuticals” (Sanofi-Aventis Deutschland GmbH, priority 2003, dated 2006)

Biological target: T1, human PPARalpha (Homo sapiens, UniProt Q07869)
T1 construct: amino acids S167–Y468; expressed in transfected cells; host or cells: HEK (human embryo kidney) cells, stably transfected with pcDNA3 carrying the fusion construct
T1 sequence (Q07869 167-468): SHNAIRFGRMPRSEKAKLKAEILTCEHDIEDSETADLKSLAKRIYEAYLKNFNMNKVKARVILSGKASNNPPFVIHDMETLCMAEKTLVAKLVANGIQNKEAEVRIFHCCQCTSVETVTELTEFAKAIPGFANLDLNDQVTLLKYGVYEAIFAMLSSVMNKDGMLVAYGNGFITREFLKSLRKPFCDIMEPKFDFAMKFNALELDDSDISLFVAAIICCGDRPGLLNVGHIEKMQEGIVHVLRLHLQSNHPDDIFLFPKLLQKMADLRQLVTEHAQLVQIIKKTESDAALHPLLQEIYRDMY
Experiment: Cellular PPARalpha assay (stably transfected HEK luciferase reporter cell line)
Assay type: cell-based
Settings: PPARalpha reporter cell line (HEK, GR-GAL4-humanPPARalpha-LBD), luciferase readout
Description: Determination of EC50 Values of PPAR Agonists in the Cellular PPARalpha Assay
The potency of substances which bind to human PPARalpha and activate in an agonistic manner is analyzed using a stably transfected HEK cell line (HEK=human embryo kidney) which is referred to here as PPARalpha reporter cell line. It contains two genetic elements, a luciferase reporter element (pdeltaM-GAL4-Luc-Zeo) and a PPARalpha fusion protein (GR-GAL4-humanPPARalpha-LBD) which mediates expression of the luciferase reporter element depending on a PPARalpha ligand. The stably and constitutively expressed fusion protein GR-GAL4-humanPPARalpha-LBD binds in the cell nucleus of the PPARalpha reporter cell line via the GAL4 protein portion to the GAL4 DNA binding motifs 5′-upstream of the luciferase reporter element which is integrated in the genome of the cell line. There is only little expression of the luciferase reporter gene without addition of a PPARalpha ligand if fatty acid-depleted fetal calf serum (cs-FCS) is used in the assay. PPARalpha ligands bind and activate the PPARalpha fusion protein and thereby bring about expression of the luciferase reporter gene. The luciferase which is formed can be detected by means of chemiluminescence via an appropriate substrate.
The PPARalpha reporter cell line was prepared in 2 stages. Firstly, the luciferase reporter element was constructed and stably transfected into HEK cells. For this purpose, five binding sites of the yeast transcription factor GAL4 (each 5′-CGGAGTACTGTCCTCCGAG-3′) (SEQ ID No.1) were cloned in 5′-upstream of a 68 bp-long minimal MMTV promoter (Genbank Accession #V01175). The minimal MMTV promoter section contains a […] and a TATA element in order to enable efficient transcription by RNA polymerase II. The cloning and sequencing of the GAL4-MMTV construct took place in analogy to the description of Sambrook J. et. al. (Molecular cloning, Cold Spring Harbor Laboratory Press, 1989). Then the complete Photinus pyralis gene (Genbank Accession #M15077) was cloned in 3′-downstream of the GAL4-MMTV element. After sequencing, the luceriferase reporter element consisting of five GAL4 binding sites, MMTV promoter and luciferase gene was recloned into a plasmid which confers zeocin resistance in order to obtain the plasmid pdeltaM-GAL4-Luc-Zeo. This vector was transfected into HEK cells in accordance with the statements in Ausubel, F. M. et al. (Current protocols in molecular biology, Vol. 1–3, John Wiley & Sons, Inc., 1995). […] In a second step, the PPARalpha fusion protein (GR-GAL4-humanPPARalpha-LBD was introduced into the stable cell clone described. For this purpose, initially the cDNA coding for the N-terminal 76 amino acids of the glucocorticoid receptor (Genbank Accession #P04150) was linked to the cDNA section coding for amino acids 1–147 of the yeast transcription factor GAL4 (Genbank Accession #P04386). The cDNA of the ligand-binding domain of the human PPARalpha receptor (amino acids S167–Y468; Genbank Accession #S74349) was cloned in at the 3′-end of this GR-GAL4 construct. The fusion construct prepared in this way (GR-GAL4-humanPPARalpha-LBD) was recloned into the plasmid pcDNA3 (from Invitrogen) in order to enable constitutive expression therein by the cytomegalovirus promoter. This plasmid was linearized with a restriction endonuclease and stably transfected into the previously described cell clone containing the luciferase reporter element. The finished PPARalpha reporter cell line which contains a luciferase reporter element and constitutively expresses the PPARalpha fusion protein (GR-GAL4-human PPARalpha-LBD) was isolated by selection with zeocin (0.5 mg/ml) and G418 (0.5 mg/ml).
The activity of PPARalpha agonists is determined in a 3-day assay which is described below: […]

Going from `Cc1ccc(-c2nc(CO[C@@H]3CCC[C@H](/C=C4/SC(=O)NC4=O)C3)c(C)o2)cc1` (racemic) [Example XXXIV, 5-[1-[cis-3-(5-Methyl-2-tolyloxazol-4-ylmethoxy)cyclohexyl]methylidene]-thiazolidine-2,4-dione] to `Cc1ccc(-c2nc(COC3CCCC(CC4SC(=O)NC4=O)C3)c(C)o2)cc1` (stereo not drawn) [XXXV, 5-[cis-3-(5-Methyl-2-tolyloxazol-4-ylmethoxy)cyclohexylmethyl]thiazolidine-2,4-dione], the EC50 rises from 114 nM to 187 nM (1.6-fold). The first is the more potent here.

First: Cc1oc(-c2ccc(F)cc2)nc1COC1CCCC(OC/C=C2\NC(=O)NC2=O)C1 (racemic) [XXIV, 5-[2-{cis-3-[2-(4-Fluorophenyl)-5-methyloxazol-4-ylmethoxy]cyclohexyloxy}-ethylidene]imidazolidine-2,4-dione]
Second: Cc1oc(-c2ccc(F)cc2)nc1CO[C@@H]1CCC[C@H](OCCC2SC(=O)NC2=O)C1 (relative stereo) [Example XXVI, 5-(2-{cis-3-[2-(4-Fluorophenyl)-5-methyloxazol-4-ylmethoxy]cyclohexyloxy}-ethyl)thiazolidine-2,4-dione]
The EC50 of the first is 3.1-fold lower: 227 nM for the first, 709 nM for the second. The first is the more potent here.

First: Cc1oc(-c2ccc(F)cc2)nc1CO[C@@H]1CCC[C@H](OS(=O)(=O)c2cc([N+](=O)[O-])ccc2Cl)C1 (relative stereo) [Example XX, cis-3-[2-(4-fluorophenyl)-5-methyloxazol-4-ylmethoxy]cyclohexyl 2-chloro-5-nitrobenzenesulfonate]
Second: COc1ccc(S(=O)(=O)O[C@H]2CCC[C@@H](OCc3nc(-c4ccc(F)cc4)oc3C)C2)c([N+](=O)[O-])c1 (relative stereo) [Example XXI, cis-3-[2-(4-fluorophenyl)-5-methyloxazol-4-ylmethoxy]cyclohexyl 4-methoxy-2-nitrobenzenesulfonate]
The EC50 of the first is 1.5-fold higher: 1930 nM for the first, 1250 nM for the second.

First: Cc1oc(-c2ccc(F)cc2)nc1CO[C@H]1CCC[C@@H](OCc2cccc([N+](=O)[O-])c2)C1 (relative stereo) [VIII, 2-(4-Fluorophenyl)-5-methyl4-[cis-3-(3-nitrobenzyloxy)cyclohexyloxy-methyl]oxazole]
Second: Cc1cccc(-c2nc(COC3CCCC(OCCC4SC(=O)NC4=O)C3)c(C)o2)c1 (stereo not drawn) [Example XXVII, 5-{2-[(cis-3-(5-Methyl-2-tolyloxazol-4-ylmethoxy)cyclohexyloxy]ethyl}thiazolidine-2,4-dione]
The EC50 of the first is 8-fold lower: 91 nM for the first, 726 nM for the second. The first is the more potent here.
